ChEMBL document CHEMBL3885881, “DrugMatrix”

Species on record: Rattus norvegicus
Experiment: DrugMatrix - Regimen: Daily Repeat
Format: toxicity, organism-based, Sprague-Dawley
Parameters: regimen Daily Repeat, gender Male, age 6-8 weeks
Details: in vivo, po, route oral GAVAGE, […]; for ABSOLUTE BASOPHIL / ABSOLUTE EOSINOPHIL / ABSOLUTE LYMPHOCYTE / ABSOLUTE MONOCYTE / ABSOLUTE SEGMENTED NEUTROPHIL / BASOPHIL / EOSINOPHIL / ERYTHROCYTE COUNT / HEMATOCRIT / HEMOGLOBIN / LEUKOCYTE COUNT / LYMPHOCYTE / MEAN CORPUSCULAR HEMOGLOBIN / MEAN CORPUSCULAR HEMOGLOBIN CONCENTRATION / MEAN CORPUSCULAR VOLUME / MONOCYTE / NEUTROPHIL / NUCLEATED RED BLOOD CELLS / PLATELET COUNT: tissue Blood; for ALANINE AMINOTRANSFERASE / ALBUMIN / ALKALINE PHOSPHATASE / ASPARTATE AMINOTRANSFERASE / BLOOD UREA NITROGEN / CARBON DIOXIDE / CHLORIDE / CHOLESTEROL / CREATINE PHOSPHOKINASE / CREATININE / GLUCOSE / LACTATE DEHYDROGENASE / LIPASE / PHOSPHORUS / POTASSIUM / SODIUM / TOTAL BILIRUBIN / TOTAL PROTEIN / URIC ACID: tissue Plasma
[1] = 0 mg/kg, 72 h, dose level Control, time 3 day
[2] = 0 mg/kg, 120 h, dose level Control, time 5 day
[3] = 47 mg/kg, 72 h, dose level Low, time 3 day

SMILES: CC(=O)Nc1nnc(S(N)(=O)=O)s1 [ACETAZOLAMIDE]
- ABSOLUTE BASOPHIL [1]: 0 CELLS/uL
- ABSOLUTE EOSINOPHIL [1]: 41.83 CELLS/uL
- ABSOLUTE LYMPHOCYTE [1]: 8545.5 CELLS/uL
- ABSOLUTE MONOCYTE [1]: 240 CELLS/uL
- ABSOLUTE SEGMENTED NEUTROPHIL [1]: 906 CELLS/uL
- BASOPHIL [1]: 0%
- EOSINOPHIL [1]: 0.33%
- ERYTHROCYTE COUNT [1]: 5.6 x10E6/uL
- HEMATOCRIT [1]: 35.4%
- HEMOGLOBIN [1]: 13.42 G/DL
- LEUKOCYTE COUNT [1]: 9.73 x10E3/uL
- LYMPHOCYTE [1]: 87.83%
- MEAN CORPUSCULAR HEMOGLOBIN [1]: 23.98 pg
- MEAN CORPUSCULAR HEMOGLOBIN CONCENTRATION [1]: 37.92 G/DL
- MEAN CORPUSCULAR VOLUME [1]: 63.3 fL
- MONOCYTE [1]: 2.5%
- NEUTROPHIL [1]: 9.33%
- NUCLEATED RED BLOOD CELLS [1]: 0 /100WBC
- PLATELET COUNT [1]: 1032 x10E3/uL
- ALANINE AMINOTRANSFERASE [1]: 72.83 u/L
- ALBUMIN [1]: 4 G/DL
- ALKALINE PHOSPHATASE [1]: 322.83 u/L
- ASPARTATE AMINOTRANSFERASE [1]: 102.67 u/L
- BLOOD UREA NITROGEN [1]: 12 mg/dL
- CARBON DIOXIDE [1]: 34.33 mmol/L
- CHLORIDE [1]: 97.67 MEQ/L
- CHOLESTEROL [1]: 82.5 mg/dL
- CREATINE PHOSPHOKINASE [1]: 410.33 u/L
- CREATININE [1]: 0.18 mg/dL
- GLUCOSE [1]: 164.5 mg/dL
- LACTATE DEHYDROGENASE [1]: 119.5 u/L
- LIPASE [1]: 11.83 u/L
- PHOSPHORUS [1]: 9.52 mg/dL
- POTASSIUM [1]: 5.56 MEQ/L
- SODIUM [1]: 142.48 MEQ/L
- TOTAL BILIRUBIN [1]: 0.18 mg/dL
- TOTAL PROTEIN [1]: 5.77 G/DL
- URIC ACID [1]: 0.48 mg/dL
- ABSOLUTE BASOPHIL [2]: 0 CELLS/uL
- ABSOLUTE EOSINOPHIL [2]: 0 CELLS/uL
- ABSOLUTE LYMPHOCYTE [2]: 9065 CELLS/uL
- ABSOLUTE MONOCYTE [2]: 341.33 CELLS/uL
- ABSOLUTE SEGMENTED NEUTROPHIL [2]: 527 CELLS/uL
- BASOPHIL [2]: 0%
- EOSINOPHIL [2]: 0%
- ERYTHROCYTE COUNT [2]: 5.25 x10E6/uL
- HEMATOCRIT [2]: 34.08%
- HEMOGLOBIN [2]: 13.5 G/DL
- LEUKOCYTE COUNT [2]: 9.93 x10E3/uL
- LYMPHOCYTE [2]: 91.17%
- MEAN CORPUSCULAR HEMOGLOBIN [2]: 25.7 pg
- MEAN CORPUSCULAR HEMOGLOBIN CONCENTRATION [2]: 39.62 G/DL
- MEAN CORPUSCULAR VOLUME [2]: 64.93 fL
- MONOCYTE [2]: 3.33%
- NEUTROPHIL [2]: 5.5%
- NUCLEATED RED BLOOD CELLS [2]: 0 /100WBC
- PLATELET COUNT [2]: 1077.5 x10E3/uL
- ALANINE AMINOTRANSFERASE [2]: 57.83 u/L
- ALBUMIN [2]: 4.07 G/DL
- ALKALINE PHOSPHATASE [2]: 319.17 u/L
- ASPARTATE AMINOTRANSFERASE [2]: 83.33 u/L
- BLOOD UREA NITROGEN [2]: 13.67 mg/dL
- CARBON DIOXIDE [2]: 30.83 mmol/L
- CHLORIDE [2]: 98.33 MEQ/L
- CHOLESTEROL [2]: 64.83 mg/dL
- CREATINE PHOSPHOKINASE [2]: 263.67 u/L
- CREATININE [2]: 0.2 mg/dL
- GLUCOSE [2]: 182.83 mg/dL
- LACTATE DEHYDROGENASE [2]: 124 u/L
- LIPASE [2]: 10.5 u/L
- PHOSPHORUS [2]: 10 mg/dL
- POTASSIUM [2]: 5.78 MEQ/L
- SODIUM [2]: 142.48 MEQ/L
- TOTAL BILIRUBIN [2]: 0.2 mg/dL
- TOTAL PROTEIN [2]: 6 G/DL
- URIC ACID [2]: 0.7 mg/dL
- ABSOLUTE BASOPHIL [3]: 0 CELLS/uL
- ABSOLUTE EOSINOPHIL [3]: 0 CELLS/uL
- ABSOLUTE LYMPHOCYTE [3]: 9847 CELLS/uL
- ABSOLUTE MONOCYTE [3]: 251.33 CELLS/uL
- ABSOLUTE SEGMENTED NEUTROPHIL [3]: 935 CELLS/uL
- BASOPHIL [3]: 0%
- EOSINOPHIL [3]: 0%
- ERYTHROCYTE COUNT [3]: 5.11 x10E6/uL
- HEMATOCRIT [3]: 32.2%
- HEMOGLOBIN [3]: 12.47 G/DL
- LEUKOCYTE COUNT [3]: 11.03 x10E3/uL
- LYMPHOCYTE [3]: 88.67%
- MEAN CORPUSCULAR HEMOGLOBIN [3]: 24.43 pg
- MEAN CORPUSCULAR HEMOGLOBIN CONCENTRATION [3]: 38.77 G/DL
- MEAN CORPUSCULAR VOLUME [3]: 63 fL
- MONOCYTE [3]: 2.33%
- NEUTROPHIL [3]: 9%
- NUCLEATED RED BLOOD CELLS [3]: 0 /100WBC
- PLATELET COUNT [3]: 1122.33 x10E3/uL
- ALANINE AMINOTRANSFERASE [3]: 67 u/L
- ALBUMIN [3]: 3.77 G/DL
- ALKALINE PHOSPHATASE [3]: 486.33 u/L
- ASPARTATE AMINOTRANSFERASE [3]: 91.33 u/L
- BLOOD UREA NITROGEN [3]: 11.33 mg/dL
- CARBON DIOXIDE [3]: 31 mmol/L
- CHLORIDE [3]: 99 MEQ/L
- CHOLESTEROL [3]: 74 mg/dL
- CREATINE PHOSPHOKINASE [3]: 250 u/L
- CREATININE [3]: 0.31 mg/dL
- GLUCOSE [3]: 173 mg/dL
- LACTATE DEHYDROGENASE [3]: 140.67 u/L
- LIPASE [3]: 13.33 u/L
- PHOSPHORUS [3]: 10.33 mg/dL
- POTASSIUM [3]: 5.3 MEQ/L
- SODIUM [3]: 144.37 MEQ/L
- TOTAL BILIRUBIN [3]: 0.23 mg/dL
- TOTAL PROTEIN [3]: 5.5 G/DL
- URIC ACID [3]: 0.67 mg/dL
